Assay results reported in US8344178B2, “Processes for producing and recovering shikimic acid” (priority 2007, dated 2013).

Columns and labels:
[1] = tested on: E. coli host strain LBB427 transformed with plasmid pXT1483; experiment: Shikimic acid from a phosphate-limited high-density fermentation culture with glyphosate (Example 10); assay type: cell-based, Escherichia coli; conditions: optical density of 40; 20 millimolar; twelve hours after addition; sample at pH 1.0, 60 degrees Celsius for 15 minutes
Procedure: The host strain LBB427 transformed with the plasmid pXT1483 can be grown to high optical densities in a phosphate-limited fermentation culture. Fermentations are conducted in a chemically-defined minimal medium containing 5.9 grams of anhydrous ammonium sulfate ((NH4)2SO4), 1.8 grams of anhydrous dibasic potassium phosphate (K2HPO4), 1.0 grams of monobasic sodium phosphate monohydrate (NaH2PO4—H2O), 550 milligrams of magnesium sulfate heptahydrate (MgSO4-7H2O), 27 milligrams of ferric chloride hexahydrate (FeCl3-6H2O), 0.5 milligrams of zinc sulfate heptahydrate (ZnSO4-7H2O), 0.9 milligrams of cobalt chloride hexahydrate (CoCl2-6H2O), 0.9 milligrams of sodium molybdate dihydrate (Na2MoO4-2H2O), 1.1 milligrams of cupric sulfate pentahydrate (CuSO4-5H2O), 0.3 milligrams of boric acid (H3BO3), and 0.7 milligrams of manganese sulfate monohydrate (MnSO4—H2O) per liter of water. The fermenter is maintained at 37 degrees Celsius. The pH is maintained at 7.0 by the controlled addition of concentrated (about 29%) ammonium hydroxide (NH4OH). […]
Twelve hours after N-(phosphonomethyl)glycine addition, samples of the fermentation cultures are taken for analysis of shikimic acid levels. […] The cells are pelleted by centrifugation, and the culture supernatants are analyzed for shikimic acid content using the HPLC assay described in Example 5.

[2] = tested on: Soybean; experiment: Shikimate accumulation in soybean after glyphosate treatment (Example 2, FIG. 6); assay type: in vivo; conditions: ROUNDUP WEATHERMAX at 100, 200, 400 and 800 g a.e./ha; 1, 2, 3 and 4 days after treatment
Procedure: (§1) Soybean plants were established in a greenhouse in 4 inch pots and treated with glyphosate at an early vegetative stage. Approximately 1 plant per pot was treated at the V2 growth stage. Plants were treated with ROUNDUP WEATHERMAX in a track sprayer, at 0, 100, 200, 400 and 800 g a.e./ha and returned to the greenhouse. All treatments were replicated 5 times. Leaves were harvested at five time points: immediately after spray (t0), and at 1, 2, 3 and 4 days after treatment. After harvest, leaves were frozen on dry ice, weighed, and then stored at −80 C until extraction and analysis.
(§2) For t0 harvest, leaves were harvested immediately after treatment. For the 1, 2, 3 and 4 day harvest, plants were washed thoroughly with water from a spray hose and then allowed to dry before harvest. This procedure allowed for the measurement of the concentration of shikimic acid as well as an estimate of the concentration of glyphosate treatment (t0) and the amount of glyphosate absorbed and retained in treated leaves (1, 2, 3 and 4 days after treatment).
(§3) Leaf tissue was ground frozen on dry ice to a frozen powder. […]
(§4) Extract analysis was performed using both HPLC/MS and HPLC/uv (210 nm) detection. […] Shikimic acid was also analyzed on a separate Agilent 1100 HPLC system equipped with a 4.6 mm×250 mm, 5 micron ODS2 Waters Spherisorb® column (P/N PSS831915) using a photodiode array detector.

[3] = tested on: E. coli K-12 host strain LBB427, untransformed or transformed with plasmid pXT1457; experiment: Treatment of E. coli strains with glyphosate in Vogel-Bonner minimal culture medium (Example 7); assay type: cell-based, Escherichia coli
Procedure: To confirm that the new plasmid was functioning as expected, the wild-type E. coli K-12 host strain LBB427 was transformed with the plasmid pXT1457. Techniques for transforming bacteria, including strains of E. coli, are known in the art (Sambrook and Russell, 2001; Ausubel et al., 2005). The shikimic acid and phenylalanine production levels of this strain were compared to that of the untransformed host strain LBB427. The strains were cultured in 50 milliliters of Vogel-Bonner minimal culture medium (Vogel and Bonner, 1956), consisting of magnesium sulfate heptahydrate (MgSO4-7H2O) at 298 milligrams per liter, anhydrous dibasic potassium phosphate (K2HPO4) at 14.93 grams per liter, sodium ammonium phosphate tetrahydrate (NaNH4HPO4-4H2O) at 5.22 grams per liter, anhydrous citric acid (the free acid form) at 2.73 grams per liter, and glucose at 2.00 grams per liter. The pH of the culture medium was 7.0. For the strain LBB427 transformed with the plasmid pXT1457, ampicillin was included in the culture medium at 100 milligrams per liter. The cultures were grown in flasks, on an incubator shaker operating at 300 rpm and 37 degrees Celsius. At 24 hours after inoculation, the cells were pelleted by centrifugation, and the culture supernatants were analyzed by a high-pressure liquid chromatography (HPLC) assay for shikimic acid and phenylalanine content. To the samples to be assayed, phosphoric acid was added to a final concentration of 6 millimolar. The samples were injected onto a 0.5 centimeter by […] Altec 5 micron Bondapak C-18 column, and the eluate was scanned from 190 to 300 nanometers.
The untransformed host strain LBB427 and the host strain LBB427 transformed with the plasmid pXT1457 were grown in 50 milliliters of the Vogel-Bonner minimal culture medium described in Example 5. For the strain LBB427 transformed with the plasmid pXT1457, ampicillin was included in the culture medium at 100 milligrams per liter. The cultures were grown in flasks, on an incubator shaker operating at 300 rpm and 37 degrees Celsius. At 2.5 hours after inoculation, N-(phosphonomethyl)glycine was added to a concentration of 3.38 grams per liter (20 millimolar). […] At 24 hours after inoculation (i.e., 21.5 hours after N-(phosphonomethyl)glycine addition), the cells were pelleted by centrifugation, and the culture supernatants were analyzed for shikimic acid content using the HPLC assay described in Example 5. The culture supernatants of the host strain LBB427 transformed with the plasmid pXT1457 were also analyzed for phenylalanine content.

[4] = tested on: Alfalfa; experiment: Shikimate accumulation in alfalfa over time after glyphosate treatment (Example 1, FIG. 5); assay type: in vivo; conditions: ROUNDUP WEATHERMAX at 100, 200, 400 and 800 g a.e./ha; 1, 2, 3 and 4 days after treatment
Procedure: as §1, with “Alfalfa was” for “Soybean plants were”, “8 plants” for “1 plant”, “were” for “was”, “V4” for “V2”
as §2, §3, §4

[5] = tested on: E. coli host strain LBB427, untransformed or transformed with plasmid pXT1457 or pXT1483; experiment: Growth of E. coli strains under phosphate-limiting conditions combined with glyphosate treatment (Example 9); assay type: cell-based, Escherichia coli; conditions: for Shikimic acid in the culture supernatant: phosphate-limitation, 20 millimolar, 21.5 hours after addition
Description: A phosphate-limiting culture medium was developed by the Applicants, containing anhydrous magnesium sulfate (MgSO4) at 192 milligrams per liter, ammonium chloride (NH4Cl) at 5.35 grams per liter, potassium chloride (KCl) at 3.73 grams per liter, sodium chloride (NaCl) at 1.17 grams per liter, triethanolamine (a buffering compound) at 22.3 grams per liter, and glucose at 1.5 grams per liter. The pH of the culture medium was 7.0. […] This culture medium was designated PF culture medium (standing for phosphate-free culture medium). However, a phosphate-limiting medium may be formulated for use in the present invention such that, while not phosphate-free, it contains minimal amounts of phosphate (i.e., is substantially free of phosphate). […] Generally, such a phosphate-limiting medium should contain phosphate at levels no more than about 1 millimolar, and preferably at levels no more than about 100 micromolar.
For pre-growth of the strains, sources of phosphate were supplied to this culture medium in the form of Casamino acids at 2.2 grams per liter and yeast extract at 300 milligrams per liter. This culture medium was designated PF-CAA/YE culture medium (standing for PF culture medium plus Casamino acids and yeast extract).
The untransformed host strain LBB427 and the host strain LBB427 transformed with the plasmid pXT1457 or with the plasmid pXT1483 were grown initially in 50 milliliters of the PF-CAA/YE culture medium described in Example 8. For the strains of LBB427 transformed with the plasmid pXT1457 or with the plasmid pXT1483, ampicillin was included in the culture medium at 100 milligrams per liter. The cultures were grown for 2.5 hours in flasks, on an incubator shaker operating at 300 rpm and 37 degrees Celsius. The cells in these cultures were pelleted by centrifugation and resuspended in the same volume of the PF culture medium described in Example 8. For the strains of LBB427 transformed with the plasmid pXT1457 or with the plasmid pXT1483, ampicillin was included in the culture medium at 100 milligrams per liter. To these resuspended cultures, N-(phosphonomethyl)glycine was added to a concentration of 3.38 grams per liter (20 millimolar). […] At 24 hours after inoculation (i.e., 21.5 hours after N-(phosphonomethyl)glycine addition), the cells were pelleted by centrifugation, and the culture supernatants were analyzed for shikimic acid content using the HPLC assay described in Example 5.
It is possible that not all of the accumulated shikimate-3-phosphate in these cells had been converted into shikimic acid and excreted into the culture medium. […] The cells were pelleted by centrifugation, and the culture supernatant was analyzed for shikimic acid content using the HPLC assay described in Example 5.

[6] = LBB427 transformed with pXT1457, 20 millimolar, 21.5 hours after addition

## O=C(O)CNCP(=O)(O)O [glyphosate, N-(phosphonomethyl)glycine]
[1]
  Shikimic acid in the culture supernatant: about 24 grams of shikimic acid per liter
[2]
  Shikimic acid accumulation in soybean leaves: accumulates to significantly high levels
[3]; 3.38 grams per liter (20 millimolar), added 2.5 hours after inoculation, LBB427 and LBB427 with pXT1457
  Growth of the cultures: almost completely inhibited
[3]; [6]
  Phenylalanine in the culture supernatant: about 50 milligrams of phenylalanine per OD unit per liter
  Shikimic acid in the culture supernatant: did not produce detectable levels
[3]; untransformed host strain LBB427, 20 millimolar, 21.5 hours after addition
  Shikimic acid in the culture supernatant: did not produce detectable levels
[4]
  Shikimic acid accumulation in alfalfa leaves over time: accumulates to significantly high levels
[5]; LBB427 transformed with pXT1457
  Shikimic acid in the culture supernatant: about 250 milligrams of shikimic acid per OD unit per liter
[5]; LBB427 transformed with pXT1483
  Shikimic acid in the culture supernatant: about 400 milligrams of shikimic acid per OD unit per liter
[5]; LBB427 transformed with pXT1483, sample with cells adjusted to pH 1.0, 60 degrees Celsius for 15 minutes
  Level of shikimic acid in the culture supernatant after acid and heat treatment of the culture sample: about 600 milligrams per OD unit per liter
[5]; untransformed host strain LBB427
  Shikimic acid in the culture supernatant: about 200 milligrams of shikimic acid per OD unit per liter
